Experimental data taken from US8993565B2, “(6-oxo-1,6-dihydropyrimidin-2-yl)amide derivatives, preparation thereof and pharmaceutical use thereof as AKT(PKB) phosphorylation inhibitors” (Sanofi, priority 2009, dated 2015).

test system: AKT protein phosphorylated on serine 473 (P-AKT-S473); assay: Study of pAKT expression in PC3 human prostate carcinoma cells measured by the MSD Multi-spot Biomarker Detection technique (Test B); format: cell-based; conditions: PC-3, inhibition of AKT phosphorylation (P-AKT-S473), MSD sandwich immunoassay, 1 to 2 h incubation, absolute IC50, mean of 2 experiments
Method: The inhibitory activity of the molecules on AKT phosphorylation is measured either by western blotting using the technique described below, or by the MSD Multi-spot Biomarker detection technique from Meso Scale Discovery also described below.
Study of pAKT Expression in PC3 Human Prostate Carcinoma Cells Measured by the MSD Multi-Spot Biomarker Detection Technique from Meso Scale Discovery (Test B):
The primary antibody specific for P-AKT-S473 (Kit #K151CAD) is coated on to an electrode in each well of the 96-well plates of the MSD, kit: after the addition of a protein lysate to each well, the signal is visualised by adding a secondary detection antibody labelled with an electrochemoluminescent compound. The procedure followed is that described in the kit.
On day 2, the cells are incubated in the presence or absence of the test products for 1 to 2 h at 37° C. in the presence of 5% of CO2. The molecules, diluted in dimethyl sulphoxide (DMSO Sigma #D2650), are added from a 20-times concentrated stock solution, the final percentage of DMSO being 0.1%. The molecules are tested either at a single concentration of less than or equal to 10 μM, or at increasing concentrations in a range that can extend from less than 1 nM to 10 μM.
After this incubation, the cells are lysed for the preparation of the proteins. […] At this stage, the plates containing the lysates can be stored at −20° C. or at −80° C.
The wells of the 96-well plates of the MSD kit are saturated for 1 h at ambient temperature with the blocking solution of the MSD kit. Four washes are carried out with 150 μl of Tris Wash Buffer of the MSD kit. The lysates previously prepared are transferred into the 96-well multi-spot plates of the MSD kit and incubated for 1 h at ambient temperature, with shaking. Four washes are carried out with 150 μl of Tris Wash Buffer of the MSD kit. 25 μl of the MSD sulfo-tag detection antibody solution are added to the wells and incubated for 1 h at ambient temperature, with shaking. Four washes are carried out with 150 μl of Tris Wash Buffer of the MSD kit. 150 μl of Read Buffer of the MSD kit are added to the wells and the plates are read immediately on the S12400 instrument from Meso Scale Discovery.
The instrument measures a signal for each well. Wells without cells and containing the lysis buffer serve to determine the background noise that will be subtracted from all the measurements (min). The wells containing cells in the absence of product and in the presence of 0.1% DMSO are considered to be the 100% signal (max). The percentage inhibition is calculated for each concentration of test product according to the following formula: (1-((test-min)(max-min)))×100.
2 independent experiments make it possible to calculate the mean of the IC50 values.

IC50 [nM]	Structure (SMILES)
666	Cn1ccc2c(NC(=O)Cc3nc(N4CCOCC4)cc(=O)[nH]3)cccc21 [Example 99, N-(1-methyl-1H-indol-4-yl)-2-[4-(morpholin-4-yl)-6-oxo-1,6-dihydropyrimidin-2-yl]acetamide]
10000	O=C(Cc1nc(N2CCOCC2)cc(=O)[nH]1)Nc1ccc(F)c(C(=O)O)c1 [Example 64, 2-fluoro-5-(([4-(morpholin-4-yl)-6-oxo-1,6-dihydropyrimidin-2-yl]acetyl)amino)benzoic acid]
938	N#Cc1cccc(NC(=O)Cc2nc(N3CCOCC3)cc(=O)[nH]2)c1O [Example 152, N-(3-cyano-2-hydroxyphenyl)-2-[4-(morpholin-4-yl)-6-oxo-1,6-dihydropyrimidin-2-yl]acetamide]
23	O=C(Cc1nc(N2CCOCC2)cc(=O)[nH]1)Nc1ccsc1 [Example 7, 2-[4-(morpholin-4-yl)-6-oxo-1,6-dihydropyrimidin-2-yl]-N-(thiophen-3-yl)acetamide]
58	Cc1cc(F)ccc1NC(=O)Cc1nc(N2CCOCC2)cc(=O)[nH]1 [Example 31, N-(4-fluoro-2-methylphenyl)-2-[4-(morpholin-4-yl)-6-oxo-1,6-dihydropyrimidin-2-yl]acetamide]
1030	O=C(Cc1nc(N2CCOCC2)cc(=O)[nH]1)Nc1cccnc1 [Example 30, 2-[4-(morpholin-4-yl)-6-oxo-1,6-dihydropyrimidin-2-yl]-N-(pyridin-3-yl)acetamide]
302	COC(=O)c1cccc(NC(=O)Cc2nc(N3CCOCC3)cc(=O)[nH]2)c1O [Example 140, methyl 2-hydroxy-3-(([4-(morpholin-4-yl)-6-oxo-1,6-dihydropyrimidin-2-yl]acetyl)amino)benzoate]
17	O=C(Cc1nc(N2CCOCC2)cc(=O)[nH]1)Nc1cccc2occc12 [Example 84, N-(1-benzofur-4-yl)-2-[4-(morpholin-4-yl)-6-oxo-1,6-dihydropyrimidin-2-yl]acetamide]
71	O=C(Cc1nc(N2CCOCC2)cc(=O)[nH]1)Nc1ccc(F)cn1 [Example 27, N-(5-fluoropyridin-2-yl)-2-[4-(morpholin-4-yl)-6-oxo-1,6-dihydropyrimidin-2-yl]acetamide]
35	COCCOc1cc(F)ccc1NC(=O)Cc1nc(N2CCOCC2)cc(=O)[nH]1 [Example 138, N-[4-fluoro-2-(2-methoxyethoxy)phenyl]-2-[4-(morpholin-4-yl)-6-oxo-1,6-dihydropyrimidin-2-yl]acetamide]
22	O=C(Cc1nc(N2CCOCC2)cc(=O)[nH]1)Nc1cccc(Br)c1O [Example 142, N-(3-bromo-2-hydroxyphenyl)-2-[4-(morpholin-4-yl)-6-oxo-1,6-dihydropyrimidin-2-yl]acetamide]
15	O=C(Cc1nc(N2CCOCC2)cc(=O)[nH]1)Nc1cccc2sccc12 [Example 105, N-(1-benzothiophen-4-yl)-2-[4-(morpholin-4-yl)-6-oxo-1,6-dihydropyrimidin-2-yl]acetamide]
3000	O=C(Cc1nc(N2CCOCC2)cc(=O)[nH]1)Nc1cccc2[nH]cnc12 [Example 139, N-(1H-benzimidazol-4-yl)-2-[4-(morpholin-4-yl)-6-oxo-1,6-dihydropyrimidin-2-yl]acetamide]
42	CC(C)(C)c1cccc(NC(=O)Cc2nc(N3CCOCC3)cc(=O)[nH]2)c1 [Example 19, N-[3-(2-methylpropan-2-yl)phenyl]-2-[4-(morpholin-4-yl)-6-oxo-1,6-dihydropyrimidin-2-yl]acetamide]
131	O=C(Cc1nc(N2CCOCC2)cc(=O)[nH]1)Nc1ccc(F)cc1Br [Example 66, N-(2-bromo-4-fluorophenyl)-2-[4-(morpholin-4-yl)-6-oxo-1,6-dihydropyrimidin-2-yl]acetamide]
146	O=C(Cc1nc(N2CCOCC2)cc(=O)[nH]1)Nc1cccc(OC2CCCC2)c1 [Example 49, N-[3-(cyclopentyloxy)phenyl]-2-[4-(morpholin-4-yl)-6-oxo-1,6-dihydropyrimidin-2-yl]acetamide]
290	O=C(Cc1nc(N2CCOCC2)cc(=O)[nH]1)Nc1cc(F)c(F)cc1F [Example 60, 2-[4-(morpholin-4-yl)-6-oxo-1,6-dihydropyrimidin-2-yl]-N-(2,4,5-trifluorophenyl)acetamide]
49	O=C(Cc1nc(N2CCOCC2)cc(=O)[nH]1)Nc1cccc(C(F)(F)F)c1O [Example 153, N-[2-hydroxy-3-(trifluoromethyl)phenyl]-2-[4-(morpholin-4-yl)-6-oxo-1,6-dihydropyrimidin-2-yl]acetamide]
35	O=C(Cc1nc(N2CCOCC2)cc(=O)[nH]1)N1CCc2ccc(F)cc21 [Example 95, 2-[2-(6-fluoro-2,3-dihydro-′1H-indol-1-yl)-2-oxoethyl]-6-(morpholin-4-yl)pyrimidin-4(3H)-one]

The next lines start with the molecule.

Structure (SMILES)	IC50 [nM]
CC1CN(C(=O)Cc2nc(N3CCOCC3)cc(=O)[nH]2)c2ccccc21 (centres unmarked) [Example 101, 2-[2-(3-methyl-2,3-dihydro-1H-indol-1-yl)-2-oxoethyl]-6-(morpholin-4-yl)pyrimidin-4(3H)-one]	13
Cn1c(CC(=O)Nc2ccc(F)c(F)c2)nc(N2CCOCC2)cc1=O [Example 78, N-(3,4-difluorophenyl)-2-[1-methyl-4-(morpholin-4-yl)-6-oxo-1,6-dihydropyrimidin-2-yl]acetamide]	129
CN(C)C[C@@H]1CN(C(=O)Cc2nc(N3CCOCC3)cc(=O)[nH]2)c2ccccc21 [Example 137, 2-(2-{(3R)-3-[(dimethylamino)methyl]-2,3-dihydro-1H-indol-1-yl}-2-oxoethyl)-6-(morpholin-4-yl)pyrimidin-4(3H)-one]	68
O=C(Cc1nc(N2CCOCC2)cc(=O)[nH]1)N1CCOc2c(Cl)cccc21 [Example 149, 2-[2-(8-chloro-2,3-dihydro-4H-1,4-benzoxazin-4-yl)-2-oxoethyl]-6-(morpholin-4-yl)pyrimidin-4(3H)-one]	43
Cn1c(CC(=O)N2CCc3ccccc32)nc(N2CCOCC2)cc1=O [Example 79, 2-[2-(2,3-dihydro-1 H-indol-1-yl)-2-oxoethyl]-3-methyl-6-(morpholin-4-yl)pyrimidin-4(3 H)-one]	20
CC1Cc2ccccc2N1C(=O)Cc1nc(N2CCOCC2)cc(=O)[nH]1 (centres unmarked) [Example 96, 2-[2-(2-methyl-2,3-dihydro-1H-indol-1-yl)-2-oxoethyl]-6-(morpholin-4-yl)pyrimidin-4(3H)-one]	6
O=C(Cc1nc(N2CCOCC2)cc(=O)[nH]1)N1Cc2ccccc2C1 [Example 129, 2-[2-(1,3-dihydro-2H-isoindol-2-yl)-2-oxoethyl]-6-(morpholin-4-yl)pyrimidin-4(3H)-one]	1000
O=C(Cc1nc(N2CCOCC2)cc(=O)[nH]1)Nc1ccccc1OCCN1CCCCC1 [Example 107, 2-[4-(morpholin-4-yl)-6-oxo-1,6-dihydropyrimidin-2-yl]-N-{2-[2-(piperidin-1-yl)ethoxy]phenyl}acetamide]	24
C[C@@H]1Cc2ccccc2N1C(=O)Cc1nc(N2CCOCC2)cc(=O)[nH]1 [Example 118, 2-{2-[(2R)-2-methyl-2,3-dihydro-1H-indol-1-yl]-2-oxoethyl}-6-(morpholin-4-yl)pyrimidin-4(3H)-one]	12
Cn1c(CC(=O)Nc2ccccc2)nc(N2CCOCC2)cc1=O [Example 85, 2-[1-methyl-4-(morpholin-4-yl)-6-oxo-1,6-dihydropyrimidin-2-yl]-N-phenylacetamide]	340
Cn1c(CC(=O)Nc2ccc(F)c(Br)c2)nc(N2CCOCC2)cc1=O [Example 80, N-(3-bromo-4-fluorophenyl)-2-[1-methyl-4-(morpholin-4-yl)-6-oxo-1,6-dihydropyrimidin-2-yl]acetamide]	94
O=C(Cc1nc(N2CCOCC2)cc(=O)[nH]1)N1CCc2c(F)cc(F)cc21 [Example 92, 2-[2-(4,6-difluoro-2,3-dihydro-1H-indol-1-yl)-2-oxoethyl]-6-(morpholin-4-yl)pyrimidin-4(3H)-one]	57
O=C(Nc1ccc(F)cc1)C(F)(F)c1nc(N2CCOCC2)cc(=O)[nH]1 [Example 77, 2,2-difluoro-N-(4-fluorophenyl)-2-[4-(morpholin-4-yl)-6-oxo-1,6-dihydropyrimidin-2-yl]acetamide]	698
